In patent US5334728A (The Trustees of The University of Pennsylvania, priority 1992, dated 1994):
Like-named read-outs stand apart in the source and are kept apart here.

Key:
D-2 dopamine receptor [1] = details: cited from earlier work; for Kd: Table 1, in vitro binding; for affinity for D-2 dopamine receptor / nonspecific binding: rat striatum tissue preparations; for affinity and selectivity to the D-2 dopamine receptor: striatal membrane preparation
dopamine D-2 receptor [2] = target: T1, dopamine D-2 receptor (Rattus norvegicus, UniProt P61169); assay: Saturation binding of [^125 I]IBF to rat striatal homogenate in vitro; details: saturation curve, FIG. 1
T1 construct: Striatal tissues were excised, pooled and homogenized in 100 volumes (w/v) of ice-cold Tris-HCl buffer; from tissue; host or cells: rat striatum (male Sprague-Dawley), twice-centrifuged membrane homogenate
Description: (§1) Male Sprague-Dawley rats (200-250 g) were decapitated, and the brains were removed and placed in ice. Striatal tissues were excised, pooled and homogenized in 100 volumes (w/v) of ice-cold Tris-HCl buffer (50 mM), pH 7.4. The homogenates were centrifuged at 20,000× g for 20 min. The resultant pellets were rehomogenized in the same buffer and centrifuged again. The final pellets were resuspended in assay buffer containing: 50 mM Tris buffer pH 7.4, 120 mM NaCl, 5 mM KCl, 2 mM CaCl2 and 1 mM MgCl2 and kept at -20° C. for the following binding assay.
(§2) The binding assays were performed by incubating 50 μl of tissue preparations containing 40-60 μg of protein with appropriate amounts of l-125 labeled ligand and competitors in a total volume of 0.2 ml of the assay buffer. After an incubation period of 15 min at 37° C. (with stirring), the samples were rapidly filtered in the cell harvester (Brandel M-24R) under vacuum through Whatman GF/B glass fiber filters pretreated with 0.2% protamine base and washed with 3×5 ml of cold (4° C.) 50 mM Tris-HCl buffer, pH 7.4. […] The filters were counted in a gamma counter (Beckman 5500) at an efficiency of 70%.

dopamine D-2 receptor [3] = target: T1, dopamine D-2 receptor; assay: Competition binding using [^125 I]IBF, rat striatal membranes; details: [^125 I]IBF 0.15-0.30 nM, mean ± SEM of three to five determinations
Description: *0.15-0.30 nM [^125 I]IBF was incubated in the presence of the
(§3) indicated compounds in 7-11 concentrations and of membrane preparation
(§4) from rat striatum. Each value represents the mean ± SEM of three to
as §1, §2

D-2 dopamine receptors = target: T2, D-2 dopamine receptors (Rattus norvegicus, UniProt P61169); assay: Competition binding using [^125 I]IBZM, rat striatal membranes
T2 construct: Striatal tissues were excised, pooled and homogenized in 100 volumes (w/v) of ice-cold Tris-HCl buffer; from tissue; host or cells: rat striatum (male Sprague-Dawley), twice-centrifuged membrane homogenate
Description: *0.15-0.4 nM [^125 I]IBZM was incubated in the presence of the
as §3, §4, §1, §2

D-2 dopamine receptor [4] = details: cited from earlier work
D-2 dopamine receptor [5] = details: cited from earlier work; for nonspecific binding: in vitro
[6] = tested on: CNS D-2 dopamine receptor; details: cited from earlier work
D-2 dopamine receptor [7] = details: read-out: IC50 against [H^3]spiperone binding of rat striatal tissue preparation; Table 1 footnote; cited from earlier work
[8] = Biodistribution in rats after IV injection; type: in vivo, rat; details: IV, average of 3 rats ± SD
Description: Male Sprague Dawley rats (225-300 g), which were allowed free access to food and water, were used for in vivo biodistribution study. While under halothane anesthesia, 0.2 ml of a saline solution containing [^125 l]IBF, 21, (8-10 μCi) was injected directly into the femoral vein, and the rats were sacrificed at various time points postinjection by cardiac excision under halothane anesthesia. The organs of interest were removed, weighed and the radioactivity was counted using a Beckman gamma automatic counter (Model 4000). The percent dose per organ was calculated by a comparison of the tissue counts to suitably diluted aliquots of the injected material. Total activities of blood and muscle were calculated assuming that they are 7% and 40% of total body weight, respectively.

[9] = [^125 I]IBZM 0.15-0.4 nM, mean ± SEM of three to five determinations
[10] = N-methylspiperone imaging agent, determined earlier

T2 sequence (P61169 whole entry): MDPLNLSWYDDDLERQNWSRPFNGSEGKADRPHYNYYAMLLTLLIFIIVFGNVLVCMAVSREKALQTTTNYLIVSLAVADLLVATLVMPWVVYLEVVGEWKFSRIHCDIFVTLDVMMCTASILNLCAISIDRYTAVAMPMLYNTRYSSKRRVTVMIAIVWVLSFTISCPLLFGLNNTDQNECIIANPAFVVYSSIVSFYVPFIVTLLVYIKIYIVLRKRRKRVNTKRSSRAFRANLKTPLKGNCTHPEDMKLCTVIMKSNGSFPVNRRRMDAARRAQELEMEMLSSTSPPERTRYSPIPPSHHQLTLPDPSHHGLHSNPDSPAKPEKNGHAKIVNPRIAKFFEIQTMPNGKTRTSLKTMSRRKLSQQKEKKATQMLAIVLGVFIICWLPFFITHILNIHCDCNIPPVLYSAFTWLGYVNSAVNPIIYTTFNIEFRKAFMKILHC
T1 sequence (P61169 whole entry): as above

For `CCN1CCC[C@H]1CNC(=O)c1c(O)c(Cl)cc(Cl)c1OC` [Raclopride], the Kd (D-2 dopamine receptor [1]) is given as 1.1 nM, the “affinity for D-2 dopamine receptor” value (D-2 dopamine receptor [1]) is given as “high affinity” and the “nonspecific binding” value (D-2 dopamine receptor [1]) is given as “low nonspecific binding”.
For `CCN1CCC[C@H]1CNC(=O)c1cc(I)cc2c1OCC2` [Compound 21, 5-Iodo-7-N-[(1-ethyl-2-pyrrolidinyl)methyl]carboxamido-2,3-dihydrobenzofuran], the “nonspecific binding” value (dopamine D-2 receptor [2]) was “low nonspecific binding”, the Ki (dopamine D-2 receptor [3]) was 0.085 ± 0.01 nM and the Ki (D-2 dopamine receptors; [9]) was 0.33 ± 0.02 nM. For the same molecule, the Ki (D-2 dopamine receptors; [^125 I]IBZM binding) was 0.23 nM and the “times more effective than the bromine atom for increasing competitive binding affinity” value (D-2 dopamine receptors; iodo (21) vs bromo (19)) was “sixteen”.
In the case of `CCN1CCC[C@H]1CNC(=O)c1c(OC)ccc(I)c1O` [IBZM], the Kd (D-2 dopamine receptor [1]) is listed as 0.43 nM, the “affinity and selectivity to the D-2 dopamine receptor” value (shortened to “affinity and selectivity”) (D-2 dopamine receptor [1]) is listed as “very high affinity and selectivity” and the Ki (dopamine D-2 receptor [3]) is listed as 0.261 ± 0.018 nM.
For `COc1cc(N=[N+]=[N-])c(I)cc1C(=O)NC1CCN(Cc2ccccc2)CC1` [Iodoazidoclebopride], the Kd (D-2 dopamine receptor [1]) is listed as 14 nM and the “affinity and selectivity” value (D-2 dopamine receptor [1]) is listed as “very high affinity and selectivity”.
Molecule `CCN1CCC[C@H]1CNC(=O)c1cccc2c1OCC2` [Compound 23, 7-N-[(1-ethyl-2-pyrrolidinyl)methyl]carboxamido-2,3-dihydrobenzofuran] has a Ki (D-2 dopamine receptors; [9]) of 135 ± 22 nM and a Ki (D-2 dopamine receptors; [^125 I]IBZM binding) of 135 nM.
In the case of `CCN1CCC[C@H]1CNC(=O)c1c(OC)ccc([123I])c1O` [S-[^123 I]IBZM], the “basal ganglia uptake, planar imaging” value (D-2 dopamine receptor [4]; immediately after intravenous injection, humans) is given as “high concentration in basal ganglia of the brain” and the “basal ganglia uptake, SPECT” value (D-2 dopamine receptor [4]; normal human brain, 1 hour postinjection) is given as “highly specific uptake in the basal ganglia of the brain”.
In the case of `O=C(CCCN1CCC2(CC1)C(=O)NCN2c1ccccc1)c1ccc(F)cc1I` [2'-ISP], the “D-2 specificity” value (D-2 dopamine receptor [5]) is listed as “excellent D-2 specificity”, the nonspecific binding (D-2 dopamine receptor [5]) is listed as 40% and the Kd (D-2 dopamine receptor [5]; rat striatum) is listed as 0.25 nM.
For `CN1CN(c2ccccc2)C2(CCN(CCCC(=O)c3ccc(F)cc3)CC2)C1=O` [N-methylspiperone], the Bmax [6, 10] is listed as 16.6 pmol/g and the Kd [6, 10] is listed as 0.097 nM.
Molecule `O=C(c1ccc(F)cc1)C1CCN(CCn2c(=O)[nH]c3ccccc3c2=O)CC1` [Ketanserin] has a Ki (dopamine D-2 receptor [3]) of 491 ± 49 nM.
With `CCN1CCC[C@H]1CNC(=O)c1cc2cc(Br)ccc2cc1O` [Comparative Cpd. A, reference compound] the Ki (D-2 dopamine receptors; [9]) was 280 ± 47 nM.
`CCN1CCC[C@H]1CNC(=O)c1cc2ccccc2cc1OC` [Compound 11, (S)-(-)-3-Methoxy-N-[(1-ethyl-2-pyrrolidinyl)methyl]naphthyl-2-carboxamide] gave a Ki (D-2 dopamine receptors; [9]) of 30 ± 4.2 nM and a Ki (D-2 dopamine receptors; [^125 I]IBZM binding) of 30 nM.
Work on `CCN1CCC[C@H]1CNC(=O)c1cc2cc(Br)ccc2cc1OC` [Compound 6, S-(-)-7-Bromo-3-methoxy-N[(1-ethyl-2-pyrrolidinyl)methyl]naphthyl-2-carboxamide] yielded a Ki (D-2 dopamine receptors; [9]) of 82 ± 12 nM and a Ki (D-2 dopamine receptors; [^125 I]IBZM binding) of 82 nM.
In the case of `CCN1CCC[C@H]1CNC(=O)c1c(O)c(Cl)cc(Cl)c1O[11CH3]` (racemic) [[^11 C]raclopride], the “affinity constant Kd” value ([6]; living human brain, PET, equilibrium model and Scatchard plots) is listed as 7.1 nM, the Bmax ([6]; living human brain, PET) is listed as 15 pmol/mL and the “ratio of specific striatal to nonspecific cerebellar binding” value ([6]; living human brain, PET) is listed as “high ratio”.
For `CCN1CCC[C@H]1CNC(=O)c1c(O)cccc1OC` [BZM], the Kd (D-2 dopamine receptor [1]) is listed as 31.1 nM.
Work on `CCN1CCC[C@H]1CNC(=O)c1c(OC)ccc2ccccc12` [Comparative Cpd. B, 2-Methoxy-N-[(1-ethyl-2-pyrrolidinyl)methyl]naphthyl-1-carboxamide, reference compound] yielded a Ki (D-2 dopamine receptors; [9]) of 507 ± 29 nM.
Molecule `NC1CCc2cc(O)c(O)cc2C1` (single isomer, unassigned; (+)) [(+) ADTN,6,7] has a Ki (dopamine D-2 receptor [3]) of 65.7 ± 13 nM.
For `CCN1CCC[C@H]1CNC(=O)c1cc(I)ccc1OC` [Iodopride], the IC50 (D-2 dopamine receptor [7]) is listed as 3 nM and the “affinity and selectivity” value (D-2 dopamine receptor [1]) is listed as “very high affinity and selectivity”.
For `CCc1cc(Cl)c(OC)c(C(=O)NC[C@@H]2CCCN2CC)c1O` [Eticlopride], the Kd (D-2 dopamine receptor [1]) is given as 0.17 nM, the “affinity for D-2 dopamine receptor” value (D-2 dopamine receptor [1]) is given as “high affinity” and the “nonspecific binding” value (D-2 dopamine receptor [1]) is given as “low nonspecific binding”.
For `CCN1CCC[C@H]1CNC(=O)c1c(OC)ccc([125I])c1O` [[^125 I]IBZM, reference compound], the nonspecific binding (D-2 dopamine receptor [5]) is listed as 5%, the Brain uptake ([8]; 2 min) is listed as 2.87 % Dose/Organ and the Thyroid uptake ([8]; 60 min) is listed as 0.1 % Dose/Organ.
For `CCN1CCC[C@H]1CNC(=O)c1cc2cc(I)ccc2cc1OC` [Compound 8, (S)-(-)-7-Iodo-3-methoxy-N-[(1-ethyl-2-pyrrolidinyl)methyl]naphthyl-2-carboxamide], the Ki (D-2 dopamine receptors; [9]) was 168 ± 13 nM and the Ki (D-2 dopamine receptors; [^125 I]IBZM binding) was 168 nM.
